Laboratory results: article PMC9127750, “Structure-based design of CDC42 effector interaction inhibitors for the treatment of cancer” (Cell reports, 2022)
Values joined by “and” are separate entries in the source; they are usually repeats but may differ in a detail not shown here. Equal entries are not always repeated.

Tested on: WM3248 melanoma cells, 486 antibodies
Assay: Reverse phase protein arrays (RPPA)
Format: cell-based, Human
Description: Pellets were snap frozen in liquid nitrogen and shipped to MD Anderson Cancer Center core RPPA facility for RPPA analysis (Table S5). Three biological replicates for each sample were generated.
Nomenclatures on the RPPA heatmaps: name_of_antibody.species_of_antibody.status_of_antibody. V - antibody validated; C - validation of antibody in progress; Q - antibody nonspecific; E – under evaluation; antibodies raised in M - mouse, G - goat, R - rabbit, or T - rat.

[1] = level 10 normalized to 0, mean of 3

## CN(C)c1cccc(Nc2cc(-c3ccccc3)nc(C3CCNCC3)n2)c1 [ARN22089, N1,N1-dimethyl-N3-(6-phenyl-2-(piperidin-4-yl)pyrimidin-4-yl)benzene-1,3-diamine]
Level 5 vs 0, replicates
  INPP4b.R.C Norm_5: 0.976 and 1.019
  IR.b.R.C Norm_5: 1.056 and 1.010
  IRF.1.R.V Norm_5: 0.974 and 0.981 and 1.030
  IRF.3.R.V Norm_5: 0.924 and 0.890 and 0.996
  IRS1.R.V Norm_5: 1.029 and 1.046 and 0.995
  IRS2.R.C Norm_5: 1.195 and 0.736 and 1.046
  JAB1.M.C Norm_5: 0.954 and 0.981 and 0.972
  JNK2.R.V Norm_5: 0.643 and 1.507
  JNK_pT183_Y185.R.C Norm_5: 1.060 and 0.929 and 0.988
  Jagged1.R.V Norm_5: 1.010 and 1.054 and 0.889
  Jak2.R.V Norm_5: 0.979 and 0.991
  KAP1.R.V Norm_5: 1.116 and 1.063 and 1.099
  KEAP1.R.V Norm_5: 1.026 and 0.913 and 0.925
  LAD1.R.V Norm_5: 0.952 and 0.910 and 1.029
  LC3A.B.R.C Norm_5: 1.119 and 0.843
  LCN2.R.V Norm_5: 1.996 and 0.913 and 0.985
  LDHA.R.C Norm_5: 1.253 and 1.735 and 0.318
  LRP6_pS1490.R.V Norm_5: 1.015 and 1.011 and 1.114
  Lasu1.R.V Norm_5: 0.982 and 1.009 and 0.926
  Lck.R.V Norm_5: 1.005 and 1.060 and 0.966
  Lyn.R.V Norm_5: 0.801 and 0.941 and 0.791
  MACC1.R.V Norm_5: 0.899 and 0.883 and 1.061
  MAPK_pT202_Y204.R.C Norm_5: 1.017 and 0.736 and 0.856
  MCT4.R.V Norm_5: 1.005 and 0.979 and 1.159
  MDM2_pS166.R.V Norm_5: 1.021 and 1.261 and 0.787
  MEK1.R.V Norm_5: 1.082 and 0.785 and 1.201
  MEK1_pS217_S221.R.V Norm_5: 0.926
  MEK2.R.V Norm_5: 1.048 and 1.127 and 0.942
  MERIT40.R.C Norm_5: 0.988 and 1.019 and 0.961
  MERIT40_pS29.R.V Norm_5: 1.133 and 1.001
  METTL3.R.V Norm_5: 0.968 and 1.099 and 0.891
  MIF.R.C Norm_5: 0.931 and 0.965 and 0.948
  MIG6.R.V Norm_5: 0.932 and 0.886 and 1.000
  MITF.R.V Norm_5: 0.975 and 1.014
  MLH1.M.V Norm_5: 0.900 and 0.937 and 0.942
  MLKL.R.V Norm_5: 0.966 and 0.982 and 0.886
  MMP2.R.V Norm_5: 0.925 and 0.948 and 0.967
  MMP14.R.V Norm_5: 1.097 and 1.257
  MR1.M.C Norm_5: 0.897 and 0.992
  MRAP.R.C Norm_5: 1.109 and 1.057 and 0.987
  MSH2.R.C Norm_5: 0.939 and 1.022 and 0.901
  MSH6.R.C Norm_5: 1.190 and 0.909
  MSI2.R.C Norm_5: 1.108 and 1.110 and 1.024
  MTCO1.M.V Norm_5: 0.944 and 0.964 and 1.334
  MTSS1.M.C Norm_5: 0.924 and 0.926 and 1.000
  Mcl.1.R.V Norm_5: 0.943 and 0.925 and 1.013
  MelanA.R.C Norm_5: 0.973 and 1.097
  Melanoma.gp100.R.C Norm_5: 1.016
  Merlin.R.C Norm_5: 1.257 and 0.725
  Midkine.R.V Norm_5: 0.866 and 0.942 and 0.987
  Mitofusin.1.R.V Norm_5: 1.058 and 0.973
  Mitofusin.2.R.V Norm_5: 0.945
  Mnk1.R.V Norm_5: 1.014 and 0.983
  mTOR.R.V Norm_5: 1.006 and 1.101 and 0.990
  mTOR_pS2448.R.C Norm_5: 1.104 and 1.133 and 1.002
[1]
  TSC1.R.C Norm_10 Average: 0.899
  TTF1.R.V Norm_10 Average: 1.078
  TUFM.R.V Norm_10 Average: 1.221
  Tuberin.R.V Norm_10 Average: 0.835
  Tuberin_pT1462.R.V Norm_10 Average: 1.064
  Twist.M.C Norm_10 Average: 1.019
  Tyro3.R.V Norm_10 Average: 1.386
  U.Histone.H2B.R.C Norm_10 Average: 0.890
  UBAC1.R.V Norm_10 Average: 1.014
  UBQLN4.M.C Norm_10 Average: 0.961
  UGT1A.M.V Norm_10 Average: 1.050
  UQCRC2.M.C Norm_10 Average: 1.112
  UVRAG.R.C Norm_10 Average: 0.935
  VASP.R.V Norm_10 Average: 0.873
  VAV1.R.C Norm_10 Average: 0.923
  VEGFR.2.R.V Norm_10 Average: 0.957
  VEGFR.2_pY1175.R.C Norm_10 Average: 0.964
  VHL.EPPK1.M.C Norm_10 Average: 1.030
  VHL.R.C Norm_10 Average: 0.986
  Vinculin.M.V Norm_10 Average: 0.988
  WIPI1.R.C Norm_10 Average: 1.318
  WIPI2.R.C Norm_10 Average: 0.944
  WTAP.R.V Norm_10 Average: 1.224
  Wee1.R.C Norm_10 Average: 0.915
  Wee1_pS642.R.C Norm_10 Average: 0.900
  XBP.1.G.C Norm_10 Average: 1.193
